According to patent US8410112B2, “Compounds useful as inhibitors of ATR kinase” (Vertex Pharmaceuticals Incorporated, priority 2008, dated 2013):

Target: T1, full-length ATR (Homo sapiens, UniProt Q13535)
T1 construct: in the presence of 5 nM full-length ATR
Test: ATR Inhibition Assay (radioactive-phosphate incorporation)
Format: biochemical
Settings: Ki(app); 5 nM full-length ATR, 10 μM ATP, 800 μM target peptide, 25° C.
Description: Test compounds were screened for their ability to inhibit ATR kinase using a radioactive-phosphate incorporation assay. Assays were carried out in a mixture of 50 mM
Tris/HCl (pH 7.5), 10 mM MgCl2 and 1 mM DTT. Final substrate concentrations were 10 μM [γ-33P]ATP (3 mCi 33 P ATP/mmol ATP, Perkin Elmer) and 800 μM target peptide ([…]). Assays were carried out at 25° C. in the presence of 5 nM full-length ATR. An assay stock buffer solution was prepared containing all of the reagents listed above, with the exception of ATP and the test compound of interest. […] The plate was pre-incubated for 10 minutes at 25° C. and the reaction initiated by addition of 15 μL [γ-33P]ATP (final concentration 10 μM).
The reaction was stopped after […] by the addition of 30 μL 0.1M phosphoric acid containing 2 mM ATP. A multiscreen phosphocellulose filter 96-well plate (Millipore, Cat no. MAPHN0B50) was pretreated with 100 μL 0.2M phosphoric acid prior to the addition of 45 μL of the stopped assay mixture. The plate was washed with 5×200 μL 0.2M phosphoric acid.
After removing mean background values for all of the data points, Ki(app) data were calculated from non-linear regression analysis of the initial rate data using the Prism software package (GraphPad Prism version 3.0cx for Macintosh, GraphPad Software, San Diego Calif., USA).

T1 sequence (Q13535 whole entry): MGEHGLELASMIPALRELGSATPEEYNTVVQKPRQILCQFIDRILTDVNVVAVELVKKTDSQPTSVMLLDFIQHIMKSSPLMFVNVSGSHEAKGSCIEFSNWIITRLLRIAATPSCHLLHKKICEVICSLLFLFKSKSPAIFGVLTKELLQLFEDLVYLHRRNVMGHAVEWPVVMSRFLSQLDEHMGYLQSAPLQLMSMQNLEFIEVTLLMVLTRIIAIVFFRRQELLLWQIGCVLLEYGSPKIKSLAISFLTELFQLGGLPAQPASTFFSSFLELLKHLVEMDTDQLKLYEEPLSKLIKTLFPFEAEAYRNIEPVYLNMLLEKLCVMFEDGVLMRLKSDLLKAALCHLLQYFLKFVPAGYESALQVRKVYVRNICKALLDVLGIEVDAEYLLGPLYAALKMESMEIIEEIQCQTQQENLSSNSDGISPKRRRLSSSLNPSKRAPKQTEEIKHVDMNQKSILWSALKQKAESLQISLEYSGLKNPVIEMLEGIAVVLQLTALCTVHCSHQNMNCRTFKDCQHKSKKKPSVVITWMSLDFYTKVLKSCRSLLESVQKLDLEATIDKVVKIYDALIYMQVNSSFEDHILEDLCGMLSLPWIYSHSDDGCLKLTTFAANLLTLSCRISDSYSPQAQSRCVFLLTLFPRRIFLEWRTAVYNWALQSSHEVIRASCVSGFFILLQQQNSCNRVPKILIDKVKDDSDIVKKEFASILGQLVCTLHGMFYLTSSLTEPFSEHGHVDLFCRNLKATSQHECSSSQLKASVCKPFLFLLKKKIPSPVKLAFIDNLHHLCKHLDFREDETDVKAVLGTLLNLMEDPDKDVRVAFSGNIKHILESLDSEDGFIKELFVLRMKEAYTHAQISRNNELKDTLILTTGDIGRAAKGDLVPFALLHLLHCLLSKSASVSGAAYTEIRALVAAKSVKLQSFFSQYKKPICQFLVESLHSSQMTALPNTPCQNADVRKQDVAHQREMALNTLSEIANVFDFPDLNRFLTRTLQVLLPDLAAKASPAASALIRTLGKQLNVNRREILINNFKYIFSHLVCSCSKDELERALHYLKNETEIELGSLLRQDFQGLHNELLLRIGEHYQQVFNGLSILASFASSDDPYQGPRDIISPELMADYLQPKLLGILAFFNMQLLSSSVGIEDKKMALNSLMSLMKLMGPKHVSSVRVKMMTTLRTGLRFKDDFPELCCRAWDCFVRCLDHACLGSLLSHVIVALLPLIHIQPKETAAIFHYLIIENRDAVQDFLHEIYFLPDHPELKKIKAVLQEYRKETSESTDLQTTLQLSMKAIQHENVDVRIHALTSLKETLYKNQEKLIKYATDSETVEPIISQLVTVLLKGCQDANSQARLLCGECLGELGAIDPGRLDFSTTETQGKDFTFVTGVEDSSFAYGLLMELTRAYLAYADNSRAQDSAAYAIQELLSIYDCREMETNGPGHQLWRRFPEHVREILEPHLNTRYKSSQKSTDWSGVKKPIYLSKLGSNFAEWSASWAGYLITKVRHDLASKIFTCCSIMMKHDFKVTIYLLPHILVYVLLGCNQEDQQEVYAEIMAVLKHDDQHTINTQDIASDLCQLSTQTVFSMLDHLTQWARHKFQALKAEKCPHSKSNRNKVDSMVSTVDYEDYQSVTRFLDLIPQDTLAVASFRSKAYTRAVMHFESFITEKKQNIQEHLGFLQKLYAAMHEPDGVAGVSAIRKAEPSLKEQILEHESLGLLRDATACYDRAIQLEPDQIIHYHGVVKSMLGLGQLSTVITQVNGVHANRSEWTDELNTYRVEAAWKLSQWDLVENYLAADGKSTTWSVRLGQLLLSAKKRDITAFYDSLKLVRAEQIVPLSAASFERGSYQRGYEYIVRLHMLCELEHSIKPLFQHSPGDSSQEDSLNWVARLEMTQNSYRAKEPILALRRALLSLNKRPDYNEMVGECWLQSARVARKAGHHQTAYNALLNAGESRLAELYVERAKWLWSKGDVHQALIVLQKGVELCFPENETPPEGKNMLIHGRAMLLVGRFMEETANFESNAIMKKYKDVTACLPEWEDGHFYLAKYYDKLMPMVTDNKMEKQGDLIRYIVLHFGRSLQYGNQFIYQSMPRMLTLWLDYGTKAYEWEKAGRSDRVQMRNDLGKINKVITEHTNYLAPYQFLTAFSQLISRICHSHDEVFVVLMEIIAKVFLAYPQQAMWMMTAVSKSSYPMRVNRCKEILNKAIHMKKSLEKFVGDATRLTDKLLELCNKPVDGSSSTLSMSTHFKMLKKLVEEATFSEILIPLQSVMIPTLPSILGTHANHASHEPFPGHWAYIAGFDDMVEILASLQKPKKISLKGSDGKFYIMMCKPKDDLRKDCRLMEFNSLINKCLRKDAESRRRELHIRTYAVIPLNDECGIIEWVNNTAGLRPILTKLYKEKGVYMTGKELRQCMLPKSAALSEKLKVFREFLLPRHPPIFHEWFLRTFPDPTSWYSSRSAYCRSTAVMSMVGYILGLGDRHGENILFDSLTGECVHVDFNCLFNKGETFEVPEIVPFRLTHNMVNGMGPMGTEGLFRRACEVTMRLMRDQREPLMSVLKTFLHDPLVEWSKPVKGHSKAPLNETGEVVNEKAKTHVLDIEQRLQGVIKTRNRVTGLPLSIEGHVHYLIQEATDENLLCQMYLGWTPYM

Compound | Ki [nM]
CCS(=O)(=O)N1CCN(c2cnc(N)c(-c3nc4ccccc4s3)n2)CC1 [Compound I-17, 3-(benzo[d]thiazol-2-yl)-5-(4-(ethylsulfonyl)piperazin-1-yl)pyrazin-2-amine] | 100 to 1000
CCS(=O)(=O)N1CCN(c2cnc(N)c(-c3nnc(-c4ccccc4)o3)n2)CC1 [Compound I-18, 5-(4-(ethylsulfonyl)piperazin-1-yl)-3-(5-phenyl-1,3,4-oxadiazol-2-yl)pyrazin-2-amine] | < 100
CCS(=O)(=O)N1CCN(c2cnc(N)c(-c3nc(-c4ccccc4)no3)n2)CC1 [Compound I-19, 5-(4-(ethylsulfonyl)piperazin-1-yl)-3-(3-phenyl-1,2,4-oxadiazol-5-yl)pyrazin-2-amine] | 100 to 1000
CCS(=O)(=O)N1CCN(c2cnc(N)c(C(=O)Nc3ccccc3)n2)CC1 [Compound I-20, 3-amino-6-(4-(ethylsulfonyl)piperazin-1-yl)-N-phenylpyrazine-2-carboxamide] | 100 to 1000
Cc1ccc2nc(-c3nc(N4CCS(=O)(=O)CC4)cnc3N)[nH]c2c1 [Compound I-21, 5-(1,1-dioxo-1,4-thiazinan-4-yl)-3-(6-methyl-1H-benzimidazol-2-yl)pyrazin-2-amine] | 1000 to 10000
Cc1ccc2nc(-c3nc(C4=CCC5(CC4)OCCO5)cnc3N)[nH]c2c1 [Compound I-22, 3-(6-methyl-1H-benzo[d]imidazol-2-yl)-5-(1,4-dioxaspiro[4.5]dec-7-en-8-yl)pyrazin-2-amine] | 100 to 1000
Cc1ccc2nc(-c3nc(C4=CCN(S(=O)(=O)N(C)C)CC4)cnc3N)[nH]c2c1 [Compound I-23, 4-(5-amino-6-(6-methyl-1H-benzo[d]imidazol-2-yl)pyrazin-2-yl)-N,N-dimethyl-5,6-dihydropyridine-1(2H)-sulfonamide] | < 100
CCS(=O)(=O)N1CCN(c2cnc(N)c(-c3cc4ccccc4o3)n2)CC1 [Compound I-29, 3-(benzofuran-2-yl)-5-(4-(ethylsulfonyl)piperazin-1-yl)pyrazin-2-amine] | 100 to 1000
Cc1ccc2nc(-c3nc(N4CCN(c5ccccc5)CC4)cnc3N)[nH]c2c1 [Compound I-30, 3-(6-methyl-1H-benzo[d]imidazol-2-yl)-5-(4-phenylpiperazin-1-yl)pyrazin-2-amine] | 100 to 1000
Cc1ccc2nc(-c3nc(N4CCC(C(F)(F)F)CC4)cnc3N)[nH]c2c1 [Compound I-31, 3-(6-methyl-1H-benzo[d]imidazol-2-yl)-5-(4-(trifluoromethyl)piperidin-1-yl)pyrazin-2-amine] | 1000 to 10000
CCOC(=O)N1CCN(c2cnc(N)c(-c3nc4ccc(C)cc4[nH]3)n2)CC1 [Compound I-32, ethyl 4-(5-amino-6-(6-methyl-1H-benzo[d]imidazol-2-yl)pyrazin-2-yl)piperazine-1-carboxylate] | 1000 to 10000
Cc1ccc2nc(-c3nc(N4CCC5(CC4)OCCO5)cnc3N)[nH]c2c1 [Compound I-33, 3-(6-methyl-1H-benzo[d]imidazol-2-yl)-5-(1,4-dioxa-8-azaspiro[4.5]decan-8-yl)pyrazin-2-amine] | 1000 to 10000
Cc1ccc2nc(-c3nc(N4CCC(C#N)CC4)cnc3N)[nH]c2c1 [Compound I-34, 1-(5-amino-6-(6-methyl-1H-benzo[d]imidazol-2-yl)pyrazin-2-yl)piperidine-4-carbonitrile] | 1000 to 10000
Cc1ccc2nc(-c3nc(N4CCN(c5ncccn5)CC4)cnc3N)[nH]c2c1 [Compound I-35, 3-(6-methyl-1H-benzo[d]imidazol-2-yl)-5-(4-(pyrimidin-2-yl)piperazin-1-yl)pyrazin-2-amine] | 1000 to 10000
CCS(=O)(=O)N1CCN(c2cnc(N)c(-c3ncc(-c4ccccc4)o3)n2)CC1 [Compound I-36, 5-(4-(ethylsulfonyl)piperazin-1-yl)-3-(5-phenyloxazol-2-yl)pyrazin-2-amine] | 100 to 1000
Nc1ncc(N2CCNCC2)nc1-c1nnc(-c2ccccc2)o1 [Compound I-37, 3-(5-phenyl-1,3,4-oxadiazol-2-yl)-5-(piperazin-1-yl)pyrazin-2-amine] | 1000 to 10000
CCS(=O)(=O)N1CCN(c2cnc(N)c(-c3noc(C)n3)n2)CC1 [Compound I-38, 5-(4-(ethylsulfonyl)piperazin-1-yl)-3-(5-methyl-1,2,4-oxadiazol-3-yl)pyrazin-2-amine] | 1000 to 10000
Nc1ncc(N2CC[C@H](N)C2)nc1-c1nc2ccccc2[nH]1 [Compound I-39, (S)-5-(3-aminopyrrolidin-1-yl)-3-(1H-benzo[d]imidazol-2-yl)pyrazin-2-amine] | 1000 to 10000
Nc1ncc(N2CCNCC2)nc1-c1nc2ccccc2[nH]1 [Compound I-40, 3-(1H-benzo[d]imidazol-2-yl)-5-(piperazin-1-yl)pyrazin-2-amine] | 1000 to 10000

Compound | Ki [nM]
Nc1ncc(C2=CCNCC2)nc1-c1nnc(-c2ccccc2)o1 [Compound I-41, 3-(5-phenyl-1,3,4-oxadiazol-2-yl)-5-(1,2,3,6-tetrahydropyridin-4-yl)pyrazin-2-amine] | 100 to 1000
Nc1ncc(N2CCNCC2)nc1C(=O)Nc1ccccn1 [Compound I-42, 3-amino-6-(piperazin-1-yl)-N-(pyridin-2-yl)pyrazine-2-carboxamide] | 1000 to 10000
CC(=O)NC1CCN(c2cnc(N)c(-c3nc4ccc(C)cc4[nH]3)n2)CC1 [Compound I-43, N-(1-(5-amino-6-(6-methyl-1H-benzo[d]imidazol-2-yl)pyrazin-2-yl)piperidin-4-yl)ethanamide] | 100 to 1000
CC(=O)C1(c2ccccc2)CCN(c2cnc(N)c(-c3nc4ccc(C)cc4[nH]3)n2)CC1 [Compound I-44, 1-(1-(5-amino-6-(6-methyl-1H-benzo[d]imidazol-2-yl)pyrazin-2-yl)-4-phenylpiperidin-4-yl)ethanone] | 1000 to 10000
Cc1ccc2nc(-c3nc(N4CCN(c5ccccc5F)CC4)cnc3N)[nH]c2c1 [Compound I-45, 5-(4-(2-fluorophenyl)piperazin-1-yl)-3-(6-methyl-1H-benzo[d]imidazol-2-yl)pyrazin-2-amine] | 1000 to 10000
Cc1ccc2nc(-c3nc(N4CCN(c5nccs5)CC4)cnc3N)[nH]c2c1 [Compound I-46, 3-(6-methyl-1H-benzo[d]imidazol-2-yl)-5-(4-(thiazol-2-yl)piperazin-1-yl)pyrazin-2-amine] | 100 to 1000
Cc1ccc2nc(-c3nc(N4CCN(c5cccc(F)c5)CC4)cnc3N)[nH]c2c1 [Compound I-47, 5-(4-(3-fluorophenyl)piperazin-1-yl)-3-(6-methyl-1H-benzo[d]imidazol-2-yl)pyrazin-2-amine] | 1000 to 10000
COc1cccc(N2CCN(c3cnc(N)c(-c4nc5ccc(C)cc5[nH]4)n3)CC2)c1 [Compound I-48, 5-(4-(3-methoxyphenyl)piperazin-1-yl)-3-(6-methyl-1H-benzo[d]imidazol-2-yl)pyrazin-2-amine] | 100 to 1000
Cc1ccc2nc(-c3nc(N4CCC(N(C)C)CC4)cnc3N)[nH]c2c1 [Compound I-49, 5-(4-(dimethylamino)piperidin-1-yl)-3-(6-methyl-1H-benzo[d]imidazol-2-yl)pyrazin-2-amine] | 1000 to 10000
Cc1ccc2nc(-c3nc(N4CCN(c5ccccc5C#N)CC4)cnc3N)[nH]c2c1 [Compound I-50, 2-(4-(5-amino-6-(6-methyl-1H-benzo[d]imidazol-2-yl)pyrazin-2-yl)piperazin-1-yl)benzonitrile] | 1000 to 10000
Cc1ccc2nc(-c3nc(N4CCCC(N(C)C)C4)cnc3N)[nH]c2c1 (stereo not shown) [Compound I-51, 5-(3-(dimethylamino)piperidin-1-yl)-3-(6-methyl-1H-benzo[d]imidazol-2-yl)pyrazin-2-amine] | 1000 to 10000
Cc1ccc2nc(-c3nc(N4CCN(c5ncccc5C(F)(F)F)CC4)cnc3N)[nH]c2c1 [Compound I-52, 3-(6-methyl-1H-benzo[d]imidazol-2-yl)-5-(4-(3-(trifluoromethyl)pyridin-2-yl)piperazin-1-yl)pyrazin-2-amine] | 1000 to 10000
Cc1ccc2nc(-c3nc(N4CCN(C(=O)c5ccco5)CC4)cnc3N)[nH]c2c1 [Compound I-53, (4-(5-amino-6-(6-methyl-1H-benzo[d]imidazol-2-yl)pyrazin-2-yl)piperazin-1-yl)(furan-2-yl)methanone] | 100 to 1000
CCS(=O)(=O)N1CCN(c2cnc(N)c(C(=O)Nc3ccccn3)n2)CC1 [Compound I-55, 3-amino-6-(4-(ethylsulfonyl)piperazin-1-yl)-N-(pyridin-2-yl)pyrazine-2-carboxamide] | 100 to 1000
CCS(=O)(=O)N1CCN(c2cnc(N)c(-c3nc4cccnc4[nH]3)n2)CC1 [Compound I-56, 5-(4-(ethylsulfonyl)piperazin-1-yl)-3-(3H-imidazo[4,5-b]pyridin-2-yl)pyrazin-2-amine] | 100 to 1000
CCS(=O)(=O)N1CCN(c2cnc(N)c(-c3nnc(-c4cccc(N)c4)[nH]3)n2)CC1 [Compound I-57, 3-(5-(3-aminophenyl)-4H-1,2,4-triazol-3-yl)-5-(4-(ethylsulfonyl)piperazin-1-yl)pyrazin-2-amine] | 100 to 1000
CCS(=O)(=O)N1CCN(c2cnc(N)c(-c3cc4ccccc4s3)n2)CC1 [Compound I-59, 3-(benzo[b]thiophen-2-yl)-5-(4-(ethylsulfonyl)piperazin-1-yl)pyrazin-2-amine] | 100 to 1000
CCS(=O)(=O)N1CCN(c2cnc(N)c(-c3cc4ccccc4[nH]3)n2)CC1 [Compound I-61, 5-(4-(ethylsulfonyl)piperazin-1-yl)-3-(1H-indol-2-yl)pyrazin-2-amine] | 1000 to 10000
